The subject of data set [1] is MDA-MB-231 tumor spheres. The data set can be described thus: 3D tumor sphere model, MTT and imaging. Type of data set: cell-based, human. The note with it: for tumor sphere viability: 50 µM, 72 h, formed spheres. As to the method:
MDA-MB-231 cells were seeded at a cell density of 1000 c/w in 100 μL of DMEM containing 10% FCS in a low-attachment NunclonSphera 96-well ultra-low attachment plate (Thermo Scientific Nunc™, Rochester, NY, USA), to form multicellular tumor spheres, for 4 days. The formation and growth of tumor spheres were examined and imaged with an Olympus CKX53 microscope, using a 10× objective. MDA-MB-231 tumor spheres were treated by carefully adding 50 μL of the medium with fresh nutrient medium for control spheres or with compound-supplemented medium (50 μM) for treated spheres for another 72 h. The cytotoxicity of compounds toward the MDA-MB-231 tumor spheres was investigated by MTT assay.
The formation and growth of tumor spheroids were examined and imaged with an Olympus CKX53 microscope, using 4x objective. The cytotoxicity of compounds toward the MDA-MB-231 tumor spheroids was investigated by MTT assay.

In data set [2] the target is Human recombinant HDAC-3/NcoR2 (Homo sapiens, UniProt O15379). The data set can be described thus: HDAC-Glo I/II bioluminogenic enzyme assay, HDAC3. Type of data set: biochemical. More on the design: purchased BPS Bioscience 50003. The note with it: mean ± SD of three independent experiments; read-out: HDAC Inhibition, IC50 ± SD, HDAC3.
The subject of data set [3] is MDA-MB-231 cells. Description: Apoptosis assay, Annexin V-FITC/7-AAD flow cytometry. Type of data set: cell-based, human. The note with it: for early apoptotic cells: 72 h. As to the method:
Examined breast cancer cells (MDA-MB-231) were stained with annexin V–fluorescein isothiocyanate/and 7AAD (BD Pharmingen, San Diego, CA, USA), and the samples were prepared following the specifications given by manufacturer. The population of apoptotic cells was analyzed by flow cytometry using a FACS Calibur cytometer and Cell Quest computer software (Becton Dickinson, Heidelberg, Germany).

The test system of data set [4] is MDA-MB-231 cells. The data set can be described thus: Cell viability (MTT) assay, MDA-MB-231. Type of data set: cell-based, human. To be noted: read-out: Cytotoxic activity IC50 ± SD, MDA-MB-231. As to the method:
Human breast adenocarcinoma cells (MCF-7, ATCC® HTB-22™) and triple-negative breast cancer cells (MDA-MB-231, ATCC® HTB-26™) were obtained from the American Type Culture Collection (Rockville, MD, USA). Cells were maintained as a monolayer culture in DMEM:Ham’s 12 (1:1) medium (Sigma-Aldrich, St. Louis, MO, USA) supplemented with penicillin (192 U/mL), streptomycin (200 µg/mL), and 10% of heat-inactivated fetal calf serum (FCS). Cells were grown at 37 °C in 5% CO2 and humidified air atmosphere, by twice weekly subculture.
Cytotoxic activity of synthesized 1-benzhydryl-piperazine-based HDAC inhibitors was assessed on MDA-MB-231 and MCF-7 cells using an MTT assay. MDA-MB-231 (5 × 10^3 cells/well) and MCF-7 (5 × 10^3 cells/well) were treated with synthesized compounds in six different concentrations (100, 50, 25, 12.5, 6.25, and 3.13 μM), and each concentration was added in five replicates. MTT solution (3-(4,5-dimethylthiazol-2-yl)-2,5-diphenyltetrazolium bromide) (Sigma-Aldrich, St. Louis, USA) was added to each well (20 µL) after 48 h. After 4 h of incubation, 100 μL of 10% SDS was added in each well and incubated at 37 °C. On the next day, the absorbance at 570 nm was recorded. The ratio of absorbance (570 nm) values between treated and control cells multiplied by 100 was used to calculate cell survival (%). The concentration of synthesized HDAC inhibitors that reduced cell viability by 50% was defined as the IC50 value, and was compared to the vehicle control.

Data set [5] relates to zebrafish (Danio rerio) embryos. Description: Acute and developmental toxicity in zebrafish embryos. Type of data set: in vivo. The note with it: 50 µM. As to the method:
(§1) Embryos of wild type (AB) and transgenic Tg(fli1:EGFP) and Tg(-2.8fabp10a:EGFP) zebrafish (Danio rerio) lines were kindly provided by Dr. Ana Cvejić (Wellcome Trust Sanger Institute, Cambridge, UK) and raised to adult stage in a temperature- and light-controlled zebrafish facility at 28 °C and standard 14–10 h light–dark photoperiod. Adult fish were regularly fed with commercial dry food (SDS300 granular food; Special Diet Services, Essex, UK; and TetraMinTM flakes, Tetra, Melle, Germany) twice per day and Artemia nauplii daily. All experiments involving zebrafish were performed in compliance with the European directive 2010/63/EU and the ethical guidelines of the Guide for Care and Use of Laboratory Animals of the Institute of Molecular Genetics and Genetic Engineering, University of Belgrade.
(§2) Toxicity evaluation of the tested compounds in the zebrafish model was carried out following the general rules of the OECD Guidelines for the Testing of Chemicals (OECD, 2013, Test No. 236), and procedures described in the literature. Briefly, wild type (AB) zebrafish produced by pair-wise mating were collected, washed of debris, and distributed into 24-well plates containing 10 embryos/well and 1 mL of E3 medium (5 mM NaCl, 0.17 mM KCl, 0.33 mM CaCl2, and 0.33 mM MgSO4·7H2O in distilled water), and raised at 28 °C.
(§3) To assess acute (lethality), inner organ, and developmental (teratogenicity) toxicity, the embryos at the 6 h post-fertilization (hpf) stage were treated with six different concentrations of each tested compound (100, 50, 25, 12.5, 6.25, and 3.13 µM). Stock solutions of test substances were made in DMSO. Embryo water and DMSO (0.25%) were used as negative and […] controls, respectively. The experiment was performed three times using 20 embryos per concentration. Treated embryos were inspected for 22 toxicological parameters (Table S2) every day by 120 hpf upon a stereomicroscope (Carl Zeiss™ Stemi 508 doc Stereomicroscope, Jena, Germany). Dead embryos were discarded every 24 h. At 120 hpf, embryos were anesthetized by addition of 0.1% (w/v) tricaine solution (Sigma-Aldrich, St. Louis, MO, USA), photographed, and killed by freezing at −20 °C for ≥24 h.

Assay in data set [6]: as above
Type of data set: in vivo, Danio rerio. To be noted: wild type (AB), zebrafish (Danio rerio), in vivo, other: exposure of embryos in E3 medium, evaluated at 120 hpf; for LC50: embryos treated at 6 hpf; for EC50: teratogenicity, cardiotoxicity, hepatotoxicity, treated at 6 hpf. As to the method:
as §1, §2, §3

Like-named read-outs stand apart in the source and are kept apart here.

Chain of Human recombinant HDAC-3/NcoR2 (O15379 whole entry): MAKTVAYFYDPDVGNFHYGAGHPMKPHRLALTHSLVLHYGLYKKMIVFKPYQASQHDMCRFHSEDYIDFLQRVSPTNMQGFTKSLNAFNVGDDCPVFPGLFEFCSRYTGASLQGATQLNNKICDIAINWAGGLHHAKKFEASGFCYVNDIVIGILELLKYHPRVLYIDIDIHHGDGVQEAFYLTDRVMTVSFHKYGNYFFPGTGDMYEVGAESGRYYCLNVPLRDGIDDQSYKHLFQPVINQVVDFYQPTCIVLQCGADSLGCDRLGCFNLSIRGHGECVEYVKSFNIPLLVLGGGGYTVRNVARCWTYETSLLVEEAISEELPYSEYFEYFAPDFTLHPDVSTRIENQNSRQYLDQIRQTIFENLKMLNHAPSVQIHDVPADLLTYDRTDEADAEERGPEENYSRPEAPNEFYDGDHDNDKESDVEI
Chain of Human recombinant HDAC-3/NcoR2 (Q9Y618 395-489 partner limits assumed): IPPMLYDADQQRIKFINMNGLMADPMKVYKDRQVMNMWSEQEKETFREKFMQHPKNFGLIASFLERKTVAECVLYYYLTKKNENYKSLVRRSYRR

As to `O=C(CCCCCCN1CCN(C(c2ccccc2)c2ccccc2)CC1)NO` [Compound 7b, 7-(4-(diphenylmethyl)-piperazin-1-yl)-N-hydroxyheptanamide], in data set [1] (MTT), the tumor sphere viability entry is given as “did not exhibit significant cytotoxic effects”. Besides, the sphere formation result in data set [1] (co-culture 4 d, at higher concentrations) was “inhibit sphere formation to some extent”. Further, the IC50 in data set [2] worked out at 0.267 ± 0.019 µM; in data set [4] (Homo sapiens, MDA-MB-231, 48 h) it was 10.6 ± 1.95 µM. In addition, the programmed cell death result in data set [3] (IC50 concentration, 24 h) is reported as “slight increase”. In data set [3] (IC50 concentration), the early apoptotic cells result is “around 45%”.
On to `O=C(CCCCCCCN1CCN(C(c2ccccc2)c2ccccc2)CC1)NO` [Compound 8b, 8-(4-(diphenylmethyl)-piperazin-1-yl)-N-hydroxyoctanamide], for which the IC50 in data set [1] (Homo sapiens, MDA-MB-231, spheres formed 4 d, treated 72 h, MTT) was found to be 50 µM; in data set [2], 0.207 ± 0.014 µM; in data set [4] (Homo sapiens, MDA-MB-231, 48 h), 5.42 ± 0.77 µM. Besides, in data set [1] (co-culture 50 μM, 4 d in sphere culture conditions), the “sphere formation and spheres viability” value was “significantly inhibited”. The “late apoptotic cell population” value in data set [3] (5 μM, control 1.13%) is listed as 0.45%. For the same compound, the “early apoptotic cell population” value in data set [3] (5 μM, control 1.27%) is listed as 4.13%. Further, the early apoptotic cells entry in data set [3] (IC50 concentration) was “around 45%”. Further, the “embryos with teratogenicity, cardio- or hepatotoxicity” value in data set [5] is “none”. The compound further yielded an LC50 in data set [6] of over 100 µM. Further, a half-maximal response in data set [6] (EC50) required 79.5 µM.
Take `O=C(NO)c1ccc(CN2CCN(C(c3ccccc3)c3ccccc3)CC2)cc1` [Compound 9b, 4-(4-(diphenylmethyl)-piperazin-1-ylmethyl)-N-hydroxy-benzamide]: the tumor sphere viability entry in data set [1] (MTT) is given as “did not exhibit significant cytotoxic effects”. The IC50 in data set [2] is 3.47 ± 0.121 µM; in data set [4] (48 h), 38.2 ± 3.01 µM; in data set [4] (Homo sapiens, MDA-MB-231, 48 h), 38.1 µM. Further, the early apoptotic cells entry in data set [3] (IC50 concentration) is given as “around 45%”. For the same compound, the “embryos with teratogenicity, cardio- or hepatotoxicity” value in data set [5] is listed as 32%. The same compound yielded an LC50 in data set [6] of over 100 µM. The compound further gave an EC50 in data set [6] of 53.8 µM.

The record behind these values is publication PMC9785542, “Discovery of 1-Benzhydryl-Piperazine-Based HDAC Inhibitors with Anti-Breast Cancer Activity: Synthesis, Molecular Modeling, In Vitro and In Vivo Biological Evaluation” (Pharmaceutics, 2022).
